Earlier results, collected in patent US6365621B1, “Remedies or preventives for intractable epilepsy” (Pharmaceutical Co., Ltd., priority 1998, dated 2002).

System: kainate-induced amygdala seizures
Settings: high concentration; cited from earlier work

In the case of `NS(=O)(=O)Cc1noc2ccccc12` [zonisamide], the “Suppression of status epilepticus of kainate-induced amygdala seizure in acute phase” value is given as “proven suppression effect”.
